Test results published in ChEMBL document CHEMBL1151720, “Citreamicins with potent gram-positive activity” (J Nat Prod, 2008).
Values after ≈ are worked out from the molar mass of the structure shown.

How the values were obtained:
Staphylococcus aureus [1] = assay: Antimicrobial activity against methicillin-susceptible Staphylococcus aureus 29213; format: functional
Staphylococcus aureus [2] = assay: Antimicrobial activity against methicillin-resistant Staphylococcus aureus 1137; format: functional
Staphylococcus aureus [3] = assay: Antimicrobial activity against vancomycin-intermediate Staphylococcus aureus 2012; format: functional
Staphylococcus aureus [4] = assay: Antimicrobial activity against linezolid-resistant methicillin-resistant Staphylococcus aureus 1725; format: functional
Streptococcus pneumoniae [5] = assay: Antimicrobial activity against penicillin-susceptible Streptococcus pneumoniae 975; format: functional
Streptococcus pneumoniae [6] = assay: Antimicrobial activity against penicillin-resistant Streptococcus pneumoniae 940; format: functional
Streptococcus pneumoniae [7] = assay: Antimicrobial activity against quinolone-resistant Streptococcus pneumoniae 376; format: functional
Haemophilus influenzae = assay: Antimicrobial activity against ampicillin-resistant Haemophilus influenzae 1742; format: functional
[8] = test system: Haemophilus parainfluenzae; assay: Antimicrobial activity against Haemophilus parainfluenzae 2319; format: functional
Escherichia coli [9] = assay: Antimicrobial activity against Escherichia coli 25922 QC; format: functional; settings: ATCC25922
Escherichia coli [10] = assay: Antimicrobial activity against extended spectrum beta-lactamase producing Escherichia coli 2269; format: functional
Klebsiella pneumoniae [11] = assay: Antimicrobial activity against Klebsiella pneumoniae 2239; format: functional
Moraxella catarrhalis = assay: Antimicrobial activity against Moraxella catarrhalis 557; format: functional
Serratia marcescens = assay: Antimicrobial activity against Serratia marcescens 1635; format: functional
Pseudomonas aeruginosa = assay: Antimicrobial activity against Pseudomonas aeruginosa 1473; format: functional
Staphylococcus aureus [12] = assay: Antimicrobial activity against methicillin-resistant Staphylococcus aureus 43300; format: functional
Staphylococcus aureus [13] = assay: Antimicrobial activity against methicillin-susceptible Staphylococcus aureus 6538; format: functional
Enterococcus faecium = assay: Antimicrobial activity against vancomycin-resistant Enterococcus faecium 700221 clinical isolate; format: functional
Escherichia coli [14] = assay: Antimicrobial activity against Escherichia coli 1411; format: functional
[15] = Cytotoxicity against human Hep G2 cells assessed as cell viability measured by change in ATP level after 48 hrs; format: functional; settings: HepG2, 48 h
[16] = Cytotoxicity against NHDF cells assessed as cell viability measured by change in ATP level after 48 hrs; format: cell-based; settings: human
Klebsiella pneumoniae [17] = assay: Antimicrobial activity against ampC beta-lactamase producing multidrug-resistant Klebsiella pneumoniae 2262; format: functional

| Structure (SMILES) | MIC (Staphylococcus aureus [1]) [µg/mL] | MIC (Staphylococcus aureus [2]) [µg/mL] | MIC (Staphylococcus aureus [3]) [µg/mL] | MIC (Staphylococcus aureus [4]) [µg/mL] | MIC (Streptococcus pneumoniae [5]) [µg/mL] | MIC (Streptococcus pneumoniae [6]) [µg/mL] | MIC (Streptococcus pneumoniae [7]) [µg/mL] | MIC (Haemophilus influenzae) [µg/mL] | MIC [8] [µg/mL] | MIC (Escherichia coli [9]) [µg/mL] | MIC (Escherichia coli [10]) [µg/mL] | MIC (Klebsiella pneumoniae [11]) [µg/mL] | MIC (Moraxella catarrhalis) [µg/mL] | MIC (Serratia marcescens) [µg/mL] | MIC (Pseudomonas aeruginosa) [µg/mL] | MIC (Staphylococcus aureus [12]) [µg/mL] | MIC (Staphylococcus aureus [13]) [µg/mL] | MIC (Enterococcus faecium) [µg/mL] | MIC (Escherichia coli [14]) [µg/mL] | CC90 [15] [µg/mL] | also measured |
| --- | --- | --- | --- | --- | --- | --- | --- | --- | --- | --- | --- | --- | --- | --- | --- | --- | --- | --- | --- | --- | --- |
| CCCCCCCCCC(=O)N[C@@H](Cc1c[nH]c2ccccc12)C(=O)N[C@H](CC(N)=O)C(=O)N[C@@H](CC(=O)O)C(=O)N[C@@H]1C(=O)NCC(=O)N[C@@H](CCCN)C(=O)N[C@@H](CC(=O)O)C(=O)N[C@H](C)C(=O)N[C@@H](CC(=O)O)C(=O)NCC(=O)N[C@H](CO)C(=O)N[C@@H]([C@H](C)CC(=O)O)C(=O)N[C@@H](CC(=O)c2ccccc2N)C(=O)O[C@@H]1C | 1 (≈ 0.617 µM) | 1 (≈ 0.617 µM) | 8 (≈ 4.94 µM) | 1 (≈ 0.617 µM) | 0.25 (≈ 0.154 µM) | 0.25 (≈ 0.154 µM) | 0.25 (≈ 0.154 µM) | > 64 | > 64 | > 64 | > 64 | > 64 | 16 (≈ 9.87 µM) | > 64 | > 64 | – | – | – | – | – | – |
| COc1ccc2oc3c(c(=O)c2c1O)C(=O)c1c(ccc2cc4c(c(O)c12)C(=O)N1C(C)(C4)OC(=O)C1(C)CO)C3=O (stereo not drawn) [CITREAMICIN DELTA] | 1 (≈ 1.75 µM) | 2 (≈ 3.5 µM) | 2 (≈ 3.5 µM) | 1 (≈ 1.75 µM) | ≤ 0.06 | – | – | 1 (≈ 1.75 µM) | 1 (≈ 1.75 µM) | > 64 | > 64 | > 64 | 4 (≈ 7 µM) | > 64 | > 64 | 0.5 (≈ 0.875 µM) | ≤ 0.5 | ≤ 0.25 | > 128 | 2.4 (≈ 4.2 µM) | CC90 at 48 h [16]: 0.3 µg/mL (≈ 0.525 µM) |
| COc1ccc2oc3c(O)c4c(c(O)c3c(=O)c2c1O)-c1c(cc2c(c1O)C(=O)N1C(C)(C2)OC(=O)C1(C)CO)CC4 (stereo not drawn) [CITREAMICIN EPSILON] | 0.12 (≈ 0.209 µM) | 0.25 (≈ 0.434 µM) | 0.25 (≈ 0.434 µM) | 0.12 (≈ 0.209 µM) | 0.25 (≈ 0.434 µM) | 0.12 (≈ 0.209 µM) | 0.25 (≈ 0.434 µM) | > 32 | > 32 | > 32 | > 32 | > 32 | 0.5 (≈ 0.869 µM) | > 32 | > 32 | 0.13 (≈ 0.226 µM) | 0.13 (≈ 0.226 µM) | 0.5 (≈ 0.869 µM) | > 64 | 1 (≈ 1.74 µM) | MIC (Klebsiella pneumoniae [17]): > 32 µg/mL; CC90 at 48 h [16]: 0.1 µg/mL (≈ 0.174 µM) |
| CC(=O)NC[C@H]1CN(c2ccc(N3CCOCC3)c(F)c2)C(=O)O1 [LINEZOLID] | – | – | 1 (≈ 2.96 µM) | – | – | 0.25 (≈ 0.741 µM) | – | 8 (≈ 23.7 µM) | 16 (≈ 47.4 µM) | > 64 | > 64 | > 64 | 4 (≈ 11.9 µM) | > 64 | > 64 | 1 (≈ 2.96 µM) | 0.5 (≈ 1.48 µM) | – | – | – | – |
| C[C@@H](O)[C@H]1C(=O)N2C(C(=O)O)=C(S[C@@H]3CN[C@H](C(=O)N(C)C)C3)[C@H](C)[C@H]12 [MEROPENEM] | 0.25 (≈ 0.652 µM) | – | > 4 | 0.25 (≈ 0.652 µM) | 0.015 (≈ 0.0391 µM) | 1 (≈ 2.61 µM) | 0.015 (≈ 0.0391 µM) | 0.06 (≈ 0.156 µM) | 0.03 (≈ 0.0782 µM) | 0.03 (≈ 0.0782 µM) | 0.03 (≈ 0.0782 µM) | 0.06 (≈ 0.156 µM) | ≤ 0.004 | 0.06 (≈ 0.156 µM) | 4 (≈ 10.4 µM) | – | – | – | – | – | MIC (Klebsiella pneumoniae [17]): > 64 µg/mL |
